Test results from patent US12110294B2, “CD73 compounds” (Gilead Sciences, Inc., priority 2020, dated 2024).

target: T1, CD73 activity in MDA-MB-231-GFP cells (Homo sapiens, UniProt P21589); assay: MDA-MB-231 Cell Based CD73 Activity Assay (DMEM); details: 3000 cells per well, DMEM medium with 10% human plasma, overnight compound treatment, AMP 200 uM
T1 construct: endogenous in cells; host or cells: MDA-MB-231-GFP cells
T1 sequence (P21589 27-549): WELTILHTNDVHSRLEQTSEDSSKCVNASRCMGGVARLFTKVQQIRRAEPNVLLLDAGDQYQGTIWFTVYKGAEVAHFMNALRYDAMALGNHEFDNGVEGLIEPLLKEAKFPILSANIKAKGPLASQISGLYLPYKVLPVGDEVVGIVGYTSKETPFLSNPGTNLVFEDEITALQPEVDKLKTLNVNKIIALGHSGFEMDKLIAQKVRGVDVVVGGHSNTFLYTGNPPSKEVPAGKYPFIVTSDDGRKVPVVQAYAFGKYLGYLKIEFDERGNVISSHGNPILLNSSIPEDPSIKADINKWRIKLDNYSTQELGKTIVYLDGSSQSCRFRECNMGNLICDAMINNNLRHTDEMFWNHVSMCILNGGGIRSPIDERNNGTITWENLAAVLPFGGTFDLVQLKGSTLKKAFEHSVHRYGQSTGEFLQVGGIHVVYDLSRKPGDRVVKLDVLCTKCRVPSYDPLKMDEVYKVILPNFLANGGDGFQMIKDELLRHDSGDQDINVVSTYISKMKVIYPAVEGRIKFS
Description: MDA-MB-231 Cell Based CD73 Activity Assay (DMEM) MDA-MB-231-GFP cells were seeded in 384-well plates (Greiner 781946) at a density of 3000 cells per well in 50 μL of DMEM medium with 10% HP (human plasma). Cells were plated into assay plate with compounds pre-spotted, for an overnight compound treatment. 50 uL of 400 uM AMP (final concentration will be 200 uM) was added using Bio-tek dispenser. Plates were incubated for 100 mins. […] The samples were analyzed using Rapid fire.

SMILES | EC50
O=c1[nH]cc(-c2cc([C@H]3C[C@@H]3c3ccc4c(F)nn(CC(F)(F)F)c4c3)c3nccn3n2)c(=O)[nH]1 (racemic) [Example 117, 5-(8-((2S,2S)-2-(3-fluoro-1-(2,2,2-trifluoroethyl)-1H-indazol-6-yl)cyclopropyl)imidazo[1,2-b]pyridazin-6-yl)pyrimidine-2,4(1H,3H)-dione] | 0.14 nM
O=c1[nH]cc(-c2cc([C@H]3C[C@@H]3c3ccc4cnn(CC5CC5(F)F)c4c3)c3nccn3n2)c(=O)[nH]1 (mixture of isomers) [Example 118, 5-(8-((2S,2S)-2-(1-((2,2-difluorocyclopropyl)methyl)-1H-indazol-6-yl)cyclopropyl)imidazo[1,2-b]pyridazin-6-yl)pyrimidine-2,4(1H,3H)-dione] | 0.1 nM
O=c1[nH]cc(-c2cc([C@H]3C[C@@H]3c3cc4c(ccn4CC(F)(F)F)cn3)c3nccn3n2)c(=O)[nH]1 (racemic) [Example 127, 5-(8-((2S,2S)-2-(1-(2,2,2-trifluoroethyl)-1H-pyrrolo[3,2-c]pyridin-6-yl)cyclopropyl)imidazo[1,2-b]pyridazin-6-yl)pyrimidine-2,4(1H,3H)-dione] | 0.17 nM
O=c1[nH]cc(-c2cc([C@H]3C[C@@H]3c3ccc4c(C5CC5)nn(CC(F)(F)F)c4c3)c3nccn3n2)c(=O)[nH]1 (racemic) [Example 128, 5-(8-((2S,2S)-2-(3-cyclopropyl-1-(2,2,2-trifluoroethyl)-1H-indazol-6-yl)cyclopropyl)imidazo[1,2-b]pyridazin-6-yl)pyrimidine-2,4(1H,3H)-dione] | 0.4 nM
O=c1[nH]cc(-c2cc([C@H]3C[C@@H]3c3ccc4cnn(CC5CC5)c4c3)c3nccn3n2)c(=O)[nH]1 (racemic) [Example 130, 5-(8-((2S,2S)-2-(1-(cyclopropylmethyl)-1H-indazol-6-yl)cyclopropyl)imidazo[1,2-b]pyridazin-6-yl)pyrimidine-2,4(1H,3H)-dione] | 0.13 nM
O=c1[nH]cc(-c2cc([C@H]3C[C@@H]3c3ccc4ncsc4c3)c3nc(C4CC4)cn3n2)c(=O)[nH]1 (racemic) [Example 143, 5-(8-((1S,2S)-2-(benzo[d]thiazol-6-yl)cyclopropyl)-2-cyclopropylimidazo[1,2-b]pyridazin-6-yl)pyrimidine-2,4(1H,3H)-dione] | 13.1 nM
N#Cc1ccc([C@H]2C[C@@H]2c2cc(-c3c[nH]c(=O)[nH]c3=O)nn3c(F)cnc23)nc1 (racemic) [Example 151, 6-((1S,2S)-2-(6-(2,4-dioxo-1,2,3,4-tetrahydropyrimidin-5-yl)-3-fluoroimidazo[1,2-b]pyridazin-8-yl)cyclopropyl)nicotinonitrile] | 1.94 nM
O=c1[nH]cc(-c2cc([C@H]3C[C@@H]3c3ccc4cccnc4c3)c3nccn3n2)c(=O)[nH]1 (racemic) [Example 154, 5-(8-((1S,2S)-2-(quinolin-7-yl)cyclopropyl)imidazo[1,2-b]pyridazin-6-yl)pyrimidine-2,4(1H,3H)-dione] | 5.75 nM
N#Cc1ccc([C@H]2C[C@@H]2c2cc(-c3c[nH]c(=O)[nH]c3=O)nn3ccnc23)nc1 (racemic) [Example 155, 6-((1S,2S)-2-(6-(2,4-dioxo-1,2,3,4-tetrahydropyrimidin-5-yl)imidazo[1,2-b]pyridazin-8-yl)cyclopropyl)nicotinonitrile] | 5.42 nM
O=c1[nH]cc(-c2cc([C@H]3C[C@@H]3c3ccc4cnccc4c3)c3nccn3n2)c(=O)[nH]1 (racemic) [Example 156, 5-(8-((1S,2S)-2-(isoquinolin-6-yl)cyclopropyl)imidazo[1,2-b]pyridazin-6-yl)pyrimidine-2,4(1H,3H)-dione] | 1.87 nM
O=c1[nH]cc(-c2cc([C@H]3C[C@@H]3c3ccc4ncccc4c3)c3nccn3n2)c(=O)[nH]1 (racemic) [Example 157, 5-(8-((2S,2S)-2-(quinolin-6-yl)cyclopropyl)imidazo[1,2-b]pyridazin-6-yl)pyrimidine-2,4(1H,3H)-dione] | 2.81 nM
O=c1[nH]cc(-c2cc([C@H]3C[C@@H]3c3ccnc(C(F)(F)F)c3)c3nccn3n2)c(=O)[nH]1 (racemic) [Example 160, 5-(8-((2S,2S)-2-(2-(trifluoromethyl)pyridin-4-yl)cyclopropyl)imidazo[1,2-b]pyridazin-6-yl)pyrimidine-2,4(1H,3H)-dione] | 27.8 nM
O=c1[nH]cc(-c2cc([C@H]3C[C@@H]3c3ccncc3F)c3nccn3n2)c(=O)[nH]1 (racemic) [Example 161, 5-(8-((1S,2S)-2-(3-fluoropyridin-4-yl)cyclopropyl)imidazo[1,2-b]pyridazin-6-yl)pyrimidine-2,4(1H,3H)-dione] | 11 nM
O=c1[nH]cc(-c2cc([C@H]3C[C@@H]3c3cnc4ccccc4c3)c3nccn3n2)c(=O)[nH]1 (racemic) [Example 163, 5-(8-((1S,2S)-2-(quinolin-3-yl)cyclopropyl)imidazo[1,2-b]pyridazin-6-yl)pyrimidine-2,4(1H,3H)-dione] | 10.6 nM
O=c1[nH]cc(-c2cc([C@H]3C[C@@H]3c3cncc(F)c3)c3nccn3n2)c(=O)[nH]1 (racemic) [Example 164, 5-(8-((1S,2S)-2-(5-fluoropyridin-3-yl)cyclopropyl)imidazo[1,2-b]pyridazin-6-yl)pyrimidine-2,4(1H,3H)-dione] | 14 nM
O=c1[nH]cc(-c2cc([C@H]3C[C@@H]3c3ccc(C(F)(F)F)cc3F)c3nccn3n2)c(=O)[nH]1 (racemic) [Example 165, 5-(8-((1S,2S)-2-(2-fluoro-4-(trifluoromethyl)phenyl)cyclopropyl)imidazo[1,2-b]pyridazin-6-yl)pyrimidine-2,4(1H,3H)-dione] | 38.7 nM
O=c1[nH]cc(-c2cc([C@H]3C[C@@H]3c3cccc4ccncc34)c3nccn3n2)c(=O)[nH]1 (racemic) [Example 166, 5-(8-((1S,2S)-2-(isoquinolin-8-yl)cyclopropyl)imidazo[1,2-b]pyridazin-6-yl)pyrimidine-2,4(1H,3H)-dione] | 378 nM
O=c1[nH]cc(-c2cc([C@H]3C[C@@H]3c3ccnc4ccccc34)c3nccn3n2)c(=O)[nH]1 (racemic) [Example 167, 5-(8-((1S,2S)-2-(quinolin-4-yl)cyclopropyl)imidazo[1,2-b]pyridazin-6-yl)pyrimidine-2,4(1H,3H)-dione] | 152 nM
O=c1[nH]cc(-c2cc([C@H]3C[C@@H]3c3cccc4cnccc34)c3nccn3n2)c(=O)[nH]1 (racemic) [Example 168, 5-(8-((1S,2S)-2-(isoquinolin-5-yl)cyclopropyl)imidazo[1,2-b]pyridazin-6-yl)pyrimidine-2,4(1H,3H)-dione] | 306 nM
CCOC(=O)c1cn2nc(-c3c[nH]c(=O)[nH]c3=O)cc([C@H]3C[C@@H]3c3ccc(F)cc3)c2n1 (racemic) [Example 172, ethyl 6-(2,4-dioxo-1,2,3,4-tetrahydropyrimidin-5-yl)-8-((1S,2S)-2-(4-fluorophenyl)cyclopropyl)imidazo[1,2-b]pyridazine-2-carboxylate] | 65.1 nM
O=c1[nH]cc(-c2cc([C@H]3C[C@@H]3c3ccccn3)c3ncc(F)n3n2)c(=O)[nH]1 (racemic) [Example 178, 5-(3-fluoro-8-((1S,2S)-2-(pyridin-2-yl)cyclopropyl)imidazo[1,2-b]pyridazin-6-yl)pyrimidine-2,4(1H,3H)-dione] | 4.35 nM
O=c1[nH]cc(-c2cc([C@H]3C[C@@H]3c3cncnc3)c3ncc(F)n3n2)c(=O)[nH]1 (racemic) [Example 179, 5-(3-fluoro-8-((1S,2S)-2-(pyrimidin-5-yl)cyclopropyl)imidazo[1,2-b]pyridazin-6-yl)pyrimidine-2,4(1H,3H)-dione] | 60.5 nM
O=c1[nH]cc(-c2cc([C@H]3C[C@@H]3c3cccnc3)c3ncc(F)n3n2)c(=O)[nH]1 (racemic) [Example 180, 5-(3-fluoro-8-((1S,2S)-2-(pyridin-3-yl)cyclopropyl)imidazo[1,2-b]pyridazin-6-yl)pyrimidine-2,4(1H,3H)-dione] | 4.67 nM
O=c1[nH]cc(-c2cc([C@H]3C[C@@H]3c3ccncc3)c3ncc(F)n3n2)c(=O)[nH]1 (racemic) [Example 181, 5-(3-fluoro-8-((1S,2S)-2-(pyridin-4-yl)cyclopropyl)imidazo[1,2-b]pyridazin-6-yl)pyrimidine-2,4(1H,3H)-dione] | 6.42 nM
O=c1[nH]cc(-c2cc([C@H]3C[C@@H]3c3ccc(Cl)cc3)c3ncc(F)n3n2)c(=O)[nH]1 (racemic) [Example 182, 5-(8-((2S,2S)-2-(4-chlorophenyl)cyclopropyl)-3-fluoroimidazo[1,2-b]pyridazin-6-yl)pyrimidine-2,4(1H,3H)-dione] | 10.4 nM
O=c1[nH]cc(-c2cc([C@H]3C[C@@H]3c3ccc(C(F)(F)F)cc3)c3ncc(F)n3n2)c(=O)[nH]1 (racemic) [Example 183, 5-(3-fluoro-8-((1S,2S)-2-(4-(trifluoromethyl)phenyl)cyclopropyl)imidazo[1,2-b]pyridazin-6-yl)pyrimidine-2,4(1H,3H)-dione] | 23.9 nM
